According to paper PMC9553805 (Clinical Pharmacokinetics, 2022):
Where “and” joins values, the source holds several entries; their conditions need not be identical. Equal values may be shown once. Read-outs that look alike come from different tables or passages of the source.

Tests used:
CYP3A4 [1] = molecular target: T1, CYP3A4 (Homo sapiens, UniProt P08684); assay: Part D: effect of steady-state tucatinib on pharmacokinetics of midazolam; conditions: for clinical classification as inhibitor of CYP3A/CYP3A4: steady-state tucatinib 300 mg BID, midazolam probe
T1 sequence (P08684 whole entry): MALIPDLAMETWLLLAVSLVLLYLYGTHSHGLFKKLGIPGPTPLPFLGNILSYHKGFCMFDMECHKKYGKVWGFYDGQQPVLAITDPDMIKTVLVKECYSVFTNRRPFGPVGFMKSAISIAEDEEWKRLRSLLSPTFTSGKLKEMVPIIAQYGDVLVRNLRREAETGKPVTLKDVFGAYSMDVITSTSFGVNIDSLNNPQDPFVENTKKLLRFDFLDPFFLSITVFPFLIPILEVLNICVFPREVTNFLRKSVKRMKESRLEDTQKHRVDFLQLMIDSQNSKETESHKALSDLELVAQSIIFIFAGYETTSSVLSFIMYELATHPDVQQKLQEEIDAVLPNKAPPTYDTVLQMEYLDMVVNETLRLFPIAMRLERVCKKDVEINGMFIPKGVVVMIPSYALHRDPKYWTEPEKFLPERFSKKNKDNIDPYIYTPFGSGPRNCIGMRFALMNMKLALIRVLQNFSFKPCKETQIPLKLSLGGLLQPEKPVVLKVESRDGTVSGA

CYP2C9 [2] = molecular target: CYP2C9 (Homo sapiens, UniProt P11712); assay: Part D: effect of steady-state tucatinib on pharmacokinetics of tolbutamide
CYP2C9 (Homo sapiens, UniProt P11712), sequence (P11712 whole entry): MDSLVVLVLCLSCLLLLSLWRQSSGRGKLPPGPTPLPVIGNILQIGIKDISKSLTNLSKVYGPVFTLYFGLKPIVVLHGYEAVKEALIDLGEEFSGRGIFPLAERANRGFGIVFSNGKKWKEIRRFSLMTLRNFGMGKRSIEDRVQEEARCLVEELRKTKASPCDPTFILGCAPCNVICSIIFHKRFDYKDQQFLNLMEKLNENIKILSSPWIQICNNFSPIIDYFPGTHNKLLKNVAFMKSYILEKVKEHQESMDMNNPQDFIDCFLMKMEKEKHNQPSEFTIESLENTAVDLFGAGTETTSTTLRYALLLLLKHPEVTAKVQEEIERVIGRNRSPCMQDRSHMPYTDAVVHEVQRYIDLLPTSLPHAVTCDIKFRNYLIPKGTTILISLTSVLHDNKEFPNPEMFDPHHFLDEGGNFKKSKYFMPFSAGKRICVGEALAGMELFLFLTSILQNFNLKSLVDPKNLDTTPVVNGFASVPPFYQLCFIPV

P-glycoprotein (P-gp) [3] = molecular target: P-glycoprotein (P-gp) (Homo sapiens, UniProt P08183); assay: Part E: effect of steady-state tucatinib on pharmacokinetics of digoxin; type: in vivo; conditions: for clinical classification as inhibitor of P-glycoprotein: steady-state tucatinib 300 mg BID, digoxin probe
P-glycoprotein (P-gp) (Homo sapiens, UniProt P08183), sequence (P08183 whole entry): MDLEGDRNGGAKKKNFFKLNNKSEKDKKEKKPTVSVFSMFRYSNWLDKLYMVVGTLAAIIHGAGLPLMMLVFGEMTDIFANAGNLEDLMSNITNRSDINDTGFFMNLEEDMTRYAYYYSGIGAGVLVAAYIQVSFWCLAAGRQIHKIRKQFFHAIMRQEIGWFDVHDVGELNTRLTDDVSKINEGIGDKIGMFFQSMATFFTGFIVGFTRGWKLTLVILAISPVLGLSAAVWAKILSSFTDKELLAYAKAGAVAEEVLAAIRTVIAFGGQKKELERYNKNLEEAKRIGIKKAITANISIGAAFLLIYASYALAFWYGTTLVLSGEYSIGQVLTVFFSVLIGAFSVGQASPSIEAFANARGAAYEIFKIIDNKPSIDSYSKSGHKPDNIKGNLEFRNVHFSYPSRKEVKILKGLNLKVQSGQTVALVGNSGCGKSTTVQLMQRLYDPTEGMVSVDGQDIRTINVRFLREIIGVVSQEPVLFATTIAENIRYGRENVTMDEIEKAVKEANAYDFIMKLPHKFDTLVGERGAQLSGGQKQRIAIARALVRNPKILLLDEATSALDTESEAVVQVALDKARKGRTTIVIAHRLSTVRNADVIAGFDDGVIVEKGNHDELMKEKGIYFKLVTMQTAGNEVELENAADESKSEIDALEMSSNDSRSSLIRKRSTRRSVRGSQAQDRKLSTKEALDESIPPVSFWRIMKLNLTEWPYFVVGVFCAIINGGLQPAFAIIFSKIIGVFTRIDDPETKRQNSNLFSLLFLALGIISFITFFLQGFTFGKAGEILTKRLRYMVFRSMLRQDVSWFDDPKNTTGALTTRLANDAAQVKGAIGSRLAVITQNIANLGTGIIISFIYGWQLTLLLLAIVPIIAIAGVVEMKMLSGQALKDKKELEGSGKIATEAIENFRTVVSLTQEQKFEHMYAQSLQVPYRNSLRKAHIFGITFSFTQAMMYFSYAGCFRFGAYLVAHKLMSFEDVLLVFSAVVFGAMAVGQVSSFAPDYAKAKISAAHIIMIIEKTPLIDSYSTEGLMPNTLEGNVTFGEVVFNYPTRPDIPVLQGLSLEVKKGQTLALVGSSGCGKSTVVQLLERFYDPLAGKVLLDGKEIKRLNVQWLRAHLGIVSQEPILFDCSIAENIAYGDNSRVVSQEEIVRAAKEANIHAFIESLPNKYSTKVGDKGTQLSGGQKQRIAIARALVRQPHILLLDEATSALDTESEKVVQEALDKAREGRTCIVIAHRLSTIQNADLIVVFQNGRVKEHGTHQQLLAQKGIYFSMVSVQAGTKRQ

CYP3A4 [4] = molecular target: T1, CYP3A4; assay: Part A: effect of itraconazole; type: in vivo
CYP3A4/CYP2C8 = assay: Part B: effect of rifampin; type: in vivo, human
CYP2C8 [5] = molecular target: T2, CYP2C8 (Homo sapiens, UniProt P10632)
T2 sequence (P10632 1-490): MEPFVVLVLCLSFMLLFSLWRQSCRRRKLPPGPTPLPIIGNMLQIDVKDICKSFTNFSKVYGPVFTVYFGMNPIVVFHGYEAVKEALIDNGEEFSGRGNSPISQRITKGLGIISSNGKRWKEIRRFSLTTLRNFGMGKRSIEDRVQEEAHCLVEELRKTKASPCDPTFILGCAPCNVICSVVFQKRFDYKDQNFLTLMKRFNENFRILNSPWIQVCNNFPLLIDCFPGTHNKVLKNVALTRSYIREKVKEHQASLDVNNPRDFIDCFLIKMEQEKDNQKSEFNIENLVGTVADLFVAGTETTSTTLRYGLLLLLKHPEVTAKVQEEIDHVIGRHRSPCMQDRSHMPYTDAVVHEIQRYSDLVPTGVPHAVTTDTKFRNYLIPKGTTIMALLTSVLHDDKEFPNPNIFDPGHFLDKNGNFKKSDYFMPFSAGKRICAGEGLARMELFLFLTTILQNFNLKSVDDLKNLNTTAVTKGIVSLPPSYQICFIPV

[6] = humans, cited from earlier work
CYP2C8 [7] = molecular target: T2, CYP2C8; conditions: for clinical classification as inhibitor of CYP2C8: steady-state tucatinib 300 mg BID, repaglinide probe
CYP3A4 [8] = conditions: in vitro; cited from earlier work
Safety assessments = type: in vivo, human
CYP2C9 [9] = conditions: in vitro; cited from earlier work
CYP2C8 [10] = conditions: in vitro; cited from earlier work
P-glycoprotein (P-gp) [11] = conditions: in vitro; cited from earlier work
[12] = cited from earlier work
CYP2C8 [13] = type: in vivo, human; conditions: 84 subjects enrolled in this study; regardless of phenotype
[14] = with tucatinib vs tolbutamide/midazolam alone
[15] = tolbutamide/midazolam + tucatinib vs tolbutamide/midazolam alone
[16] = digoxin + tucatinib vs digoxin alone
[17] = coadministration of itraconazole vs tucatinib alone
[18] = in the presence of rifampin vs tucatinib alone
[19] = following gemfibrozil vs tucatinib alone
[20] = tucatinib + itraconazole vs tucatinib alone
[21] = tucatinib + rifampin vs tucatinib alone
[22] = tucatinib + gemfibrozil vs tucatinib alone

OCc1ncc2n1-c1ccc(Cl)cc1C(c1ccccc1F)=NC2 [1-hydroxymidazolam]
effect of tucatinib on exposure based on AUC0–last and AUC0–inf (CYP3A4 [1]; [14]): no effect
reduction of Cmax (CYP3A4 [1]; [14]): approximately 40%

CCCCNC(=O)NS(=O)(=O)c1ccc(CO)cc1 [4-hydroxytolbutamide, reference compound]
plasma exposures with vs without tucatinib (CYP2C9 [2]; [15]): Similar

C[C@H]1O[C@@H](O[C@H]2[C@@H](O)C[C@H](O[C@H]3[C@@H](O)C[C@H](O[C@H]4CC[C@@]5(C)[C@H](CC[C@@H]6[C@@H]5C[C@@H](O)[C@]5(C)[C@@H](C7=CC(=O)OC7)CC[C@]65O)C4)O[C@@H]3C)O[C@@H]2C)C[C@H](O)[C@@H]1O [Digoxin, digoxin]
increase in plasma exposure based on AUC0–inf (P-glycoprotein (P-gp) [3]; [16]): approximately 1.5 fold
increase in plasma exposure based on AUC0–last (P-glycoprotein (P-gp) [3]; [16]): approximately 1.5 fold
increase in plasma exposure based on Cmax (P-glycoprotein (P-gp) [3]; [16]): ~2.4 fold

Cc1ncc2n1-c1ccc(Cl)cc1C(c1ccccc1F)=NC2 [Midazolam, midazolam]
increase in plasma exposure based on AUC0–inf (CYP3A4 [1]; [15]): 5.7 fold and > 5 fold
increase in plasma exposure based on AUC0–last (CYP3A4 [1]; [15]): 5.3 fold
increase in plasma exposure based on Cmax (CYP3A4 [1]; [15]): 3.0 fold
reduction of metabolic ratio for AUC0–inf (CYP3A4 [1]; [14]): approximately 83%
reduction of metabolic ratio for Cmax (CYP3A4 [1]; [14]): ~80%

Cc1cc(Nc2ncnc3ccc(NC4=NC(C)(CO)CO4)cc23)ccc1Oc1ccn2ncnc2c1 (stereo not shown) [ONT-993]
geometric least squares mean ratio for AUC0–inf (CYP3A4 [4]; [17]): 1.6
geometric least squares mean ratio for Cmax (CYP3A4 [4]; [17]): 2.0
metabolic ratio for AUC0–inf, fold higher (CYP3A4/CYP2C8; [18]): 1.4 fold
metabolic ratio for Cmax, fold higher (CYP3A4/CYP2C8; [18]): 3.3 fold
decrease of metabolic ratio for AUC0–inf (CYP2C8 [5]; [19]): approximately 71%
decrease of metabolic ratio for Cmax (CYP2C8 [5]; [19]): ~81%
radioactive component in feces, share of the dose ([6]; feces): 37%
radioactive component in urine, share of the dose ([6]; urine): 1.5%

CCOc1cc(CC(=O)N[C@@H](CC(C)C)c2ccccc2N2CCCCC2)ccc1C(=O)O [Repaglinide, repaglinide, reference compound]
increase in plasma exposure based on Cmax (CYP2C8 [7]; repaglinide + tucatinib vs repaglinide alone): ~1.7 fold

Cc1cc(Nc2ncnc3ccc(NC4=NC(C)(C)CO4)cc23)ccc1Oc1ccn2ncnc2c1 [Tucatinib]
inactivation of CYP3A (CYP3A4 [8]): time/metabolism-dependent inactivation
type of inhibition of CYP3A4 (CYP3A4 [8]): competitive inhibition
participants with serum creatinine increases (Safety assessments; Part A): 50%
participants with serum creatinine increases (Safety assessments; Part B): 4%
participants with serum creatinine increases (Safety assessments; Part D): 71%
participants with serum creatinine increases (Safety assessments; Part E): 54%
Grade 3 or higher events (Safety assessments; Parts A through E overall): No Grade 3 or higher events
TEAEs considered Grade 1 (events) (Safety assessments; Parts A through E overall): 65
total number of TEAEs (Safety assessments; Parts A through E overall): 71
subjects reporting TEAEs (Safety assessments; Parts A through E overall, 37 of 114 subjects): 32.5%
tolerability (Safety assessments; Parts A–E, alone and with co-administered drugs): well tolerated
events of ALT elevation reported as Grade 1 TEAEs (Safety assessments; Parts D and E): five
renal function by cystatin C levels (Safety assessments; Parts D and E): did not reveal any elevated values
type of inhibition of CYP2C9 (CYP2C9 [9]): competitive inhibition
type of inhibition of CYP2C8 (CYP2C8 [10]): competitive inhibition
impact on CYP2C9-mediated metabolism in humans (CYP2C9 [2]; steady-state tucatinib 300 mg BID, tolbutamide probe): no impact
type of inhibition of P-glycoprotein (P-gp) (P-glycoprotein (P-gp) [11]): competitive inhibition
increase in plasma exposure based on AUC0–inf (CYP3A4 [4]; [20]): ~ 1.3 fold
increase in plasma exposure based on AUC0–last (CYP3A4 [4]; [20]): approximately 1.3 fold
increase in plasma exposure based on Cmax (CYP3A4 [4]; [20]): approximately 1.3 fold
clinical classification as inhibitor of CYP2C8 (CYP2C8 [7]): weak inhibitor
clinical classification as inhibitor of CYP2C8 (CYP2C8 [7]; listed as tucatinib): only weakly inhibits
clinical classification as inhibitor of P-glycoprotein (P-glycoprotein (P-gp) [3]): weak inhibitor
clinical classification as inhibitor of P-glycoprotein (P-glycoprotein (P-gp) [3]; listed as tucatinib): only weakly inhibits
impact of food on tucatinib exposures [12]: no clinically relevant impact
decrease in plasma exposure based on AUC0–inf (CYP3A4/CYP2C8; [21]): 48%
decrease in plasma exposure based on AUC0–last (CYP3A4/CYP2C8; [21]): approximately 48%
decrease in plasma exposure based on Cmax (CYP3A4/CYP2C8; [21]): ~37%
decrease in plasma exposure based on AUC0–inf (CYP3A4/CYP2C8; tucatinib + rifampin vs tucatinib alone, listed as tucatinib): approximately 48%
clinical classification as inhibitor of CYP3A/CYP3A4 (CYP3A4 [1]): strong inhibitor
clinical classification as inhibitor of CYP3A/CYP3A4 (CYP3A4 [1]; listed as tucatinib): strong CYP3A4 inhibitor
increase in plasma exposure based on AUC0–inf (CYP2C8 [5]; [22]): ~3.0 fold
increase in plasma exposure based on AUC0–last (CYP2C8 [5]; [22]): approximately 3.0 fold
increase in plasma exposure based on Cmax (CYP2C8 [5]; [22]): ~1.6 fold
tucatinib exposures by CYP2C8 metabolizer phenotype (CYP2C8 [13]): similar
